The subject of series [1] is cap-dependent translation in rabbit reticulocyte lysate (RRL). Description: inhibition of cap-dependent translation in rabbit reticulocyte lysate (RRL). It counts as biochemical. Particulars: RRL, cap analog and mRNA added at the same time (no pre-incubation), 60 min, 30 °C; read-out: Translation Inhibition IC50. Here is the method:
After determining the affinity for eIF4E and susceptibility to DcpS, we evaluated the analogs as inhibitors of protein translation in rabbit reticulocyte lysates (RRL). To enable better assessment of how these two factors influenced inhibitory properties, we performed two sets of experiments. In the first set, cap analogs were added to RRL along with luciferase-encoding reporter mRNA followed by a protein activity (luminescence) readout after 1 h, whereas in the second set cap analogs were additionally preincubated in RRL for 1 h prior to addition of mRNA. Based on previously reported findings, we expected that in the second experimental setup, cap analogs susceptible to DcpS would lose their inhibitory potency, whereas compounds resistant to DcpS would remain similarly active.
The ability of the N7-benzyl cap analogues to inhibit cap-dependent translation was assayed in a rabbit reticulocyte lysate (RRL) system. Two sets of experiments were performed. In both variants, in vitro translation reactions (10 μL total volume) contained a tested cap analog (inhibitor) and an in vitro transcribed, ARCA-capped mRNA encoding Gaussia luciferase at 1 μg/mL final concentration. In experimental variant A, cap analogues at concentrations in the range of 0 to 64 μM and mRNA were added to the reaction mixture at the same time. Reactions were incubated at 30 °C for 60 min and then stopped by freezing in liquid nitrogen. In experimental variant B, the cap analogues were added at concentrations in the range of 0 to 160 μM. Reactions were pre-incubated at 30 °C for 60 min prior to addition of mRNA; after addition of mRNA incubation was continuous at 30 °C for 60 min and then stopped by freezing in liquid nitrogen. To detect luminescence from Gaussia luciferase, 50 μL of 10 ng/mL h-coelenterazine (NanoLight, Norman, OK, USA) in PBS was added to 10 μL of RRL and the luminescence was measured with a Synergy H1 (BioTek, Winooski, VT, USA) microplate reader.

In a further series the target is eIF4E (Mus musculus, UniProt P63073). Briefly: fluorescence anisotropy (FA) competition assay with eIF4E. Particulars: Table S2. The series is classed as binding. The text has this:
The KD values determined from the high-throughput assay were in qualitative agreement with data from time-synchronized fluorescence quenching titration, justifying the use of the former for evaluation of the whole set of caps. […] To additionally verify the binding affinity data (especially for 1q and 1r, as mentioned above), we determined the binding affinities for all analogs using another independent assay, based on fluorescence anisotropy. The KD data determined by this method correlated very well with the results reported above (Table S2, Figure S2).
Fractions of the compounds were independently tested using a different method based on fluorescence anisotropy (FA). These experiments were performed on a Synergy™ H1 plate reader in 96-well, black, non-binding assay plates. Each well contained appropriate buffer (50 mM HEPES/KOH pH 7.2, 100 mM KCl, 0.5 mM EDTA i 1 mM DTT), the fluorescent probe m^7GTP-triazol-FAM (10 nM), substrate (in a 2.08-fold dilution, starting from 60 μM) and protein eIF4E (100 nM). The m^7GTP-triazol-FAM was synthesized as describer earlier. All measurements were performed at 25 °C. Determined EC50 values were means ± SD of three independent experiments. The dissociation constants KD were then calculated using the equation described by Nikolovska-Coleska as described earlier.

A further series concerns the target T1, hDcpS (Homo sapiens, UniProt Q96C86).
T1 sequence (Q96C86 1-337): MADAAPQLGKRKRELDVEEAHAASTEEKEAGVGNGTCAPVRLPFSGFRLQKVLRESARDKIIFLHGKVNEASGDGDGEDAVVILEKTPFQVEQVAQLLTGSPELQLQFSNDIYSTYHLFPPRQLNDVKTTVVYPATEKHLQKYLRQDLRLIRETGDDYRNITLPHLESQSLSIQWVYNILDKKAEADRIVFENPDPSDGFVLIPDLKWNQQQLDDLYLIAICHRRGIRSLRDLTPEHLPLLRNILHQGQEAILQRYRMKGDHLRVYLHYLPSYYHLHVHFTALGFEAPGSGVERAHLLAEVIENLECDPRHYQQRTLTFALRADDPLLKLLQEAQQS
It counts as in vitro ADME. Conditions: 100 μM compound, 20 nM hDcpS. Here is the method:
Susceptibility to decapping scavenger (DcpS) is one of the factors that could potentially influence the cellular stability of mono- and dinucleotide cap analogs designed as translational inhibitors. Therefore, we studied the susceptibility of arylmethyl-modified dinucleotides to DcpS. The compounds (at 100 μM concentration each) were incubated with 20 nM of hDcpS, and the hydrolysis progress at different time points was analyzed via RP HPLC and compared to m^7GpppG (Figure 4 and Figure S3).
The enzymatic activity of DcpS was assayed at 37 °C in 50 mM Tris∙HCl, pH 7.6 containing 200 mM KCl, 0.5 mM EDTA. DcpS cleavage assays were carried out with 100 μM of the tested compound and 20 nM (monomer) of the hDcpS. Enzymatic reaction progress was examined after 30, 60 and 180 min. As a control, a sample was examined before adding enzyme. Aliquots of 15 μL were terminated by heat inactivation of the enzyme for 3 min at 98 °C. The samples were analyzed via RP HPLC equipped with a Supelcosil LC-18-T column (4.6 × 250 mm, 5 μm, flow rate 1.3 mL/min).

Series [2] concerns the target eukaryotic translation initiation factor 4E (eIF4E) (Mus musculus, UniProt P63073). Description: pyrene-probe fluorescent competitive-binding assay (PyFLINT-B) for cap analog-eIF4E. The text has this: High affinity for eIF4E is a desirable feature of cap analogs designed for modulating translation, either as small molecules or as a part of mRNA. Thus, we studied how different substituents at the N7-position affected eIF4E-cap interaction. To this end, we first determined the affinity of m^7GpppG and Bn^7GpppG (1a) using time-synchronized fluorescence quenching titration, a very precise and well-established, but low-throughput method. Next, to evaluate the whole set of the synthesized compounds (1a–1r), we used a high-throughput competitive-binding assay based on a pyrene-labeled fluorescent probe. From this assay we determined relative affinities of the compounds represented by half-effective concentrations (EC50) (Figure 3A–C), which were then used to calculate dissociation constant (KD) values for cap analog–eIF4E complexes using previously reported equations (Table 2, Figure 3D).
To determine the dissociation constants of the library of N7-benzylated dinucleotide 5′ cap analogs for translation initiation factor 4E, a fluorescent competitive-binding assay (PyFLINT-B) was applied as previously described. The experiments were performed on a Synergy™ H1 plate reader in 96-well, black, non-binding assay plates. Each well contained an appropriate buffer (50 mM Hepes/KOH pH 7.2, 100 mM KCl and 0.5 mM EDTA), pyrene probe m^7Gp5C4Py (10 nM), substrate (in half-logarithmic dilutions from 850 μM to 0.03 μM for compound 1m and from 100 μM to 0.003 μM for m^7GpppG and the rest of the compounds) and protein eIF4E (75 nM). The m^7Gp5C4Py was synthesized as describer earlier. The pyrene probe was dissolved in water and concentration was determined spectrometrically at 345 nm using the extinction coefficient (21,000 M^−1 cm^−1). The eIF4E protein was centrifuged after defrosting (5 min, 4 °C, 10k rcf) and its concentration was determined spectrometrically at 280 nm using the extinction coefficient (52,940 M^−1 cm^−1). The reaction mixtures were preincubated (15 min, 300 rpm, 30 °C). All measurements were performed at 30 °C and the fluorescence detection at 345 nm excitation and 378 nm emission was recorded.
To determine EC50 values, GraphPad Prism 9.1.2 software was used. To fit the curves to the obtained data we used the following formula:(1) Y=Bottom+ Top−Bottom/1+ X/EC50 where: X, cap analog (ligand) concentration; EC50, concentration of the cap analog resulting in half-maximal response from the fluorescent probe–protein complex; Bottom, minimal signal from the negative control, which contains only the free probe; Top, maximal signal from the positive control, the mixture of the protein and the fluorescent probe.
The dissociation constants KD were then calculated using the equation described by Nikolovska-Coleska et al.:(2) KD=EC50−Pt+PL50KD_probe/L50+1/L50/KD_probe+P0/KD_probe+1 where: EC50, concentration of the cap analog resulting in half-maximal response from the fluorescent probe–protein complex; [Pt], total protein concentration; [PL]50, concentration of the probe–protein complex at 50% inhibition; KD_probe, dissociation constant of the complex between the fluorescent probe and the protein; [L]50, probe concentration at 50% inhibition; [P]0, free protein concentration at 0% inhibition.

For a further series, the system named is A549 cells. Description: translational efficiency of mRNAs capped with the analogs in A549 cells (Gaussia luciferase). It counts as cell-based. Particulars: mRNA capped with the analog; Gaussia luciferase activity in A549 cells 72 h post-transfection; normalized to m^7GpppG RNA. Here is the method:
Finally, we tested the properties of arylmethyl cap analogs as reagents for co-transcriptional mRNA capping. […] Here, we sought to evaluate the translational properties of mRNAs capped with N7-arylmethyl analogs in cultured cells. To that end, the translation properties of transcripts capped with selected analogs were assessed in A549 cells. In vitro transcribed mRNAs encoding Gaussia luciferase, capped with compounds 1a–1k, 1m–1n, and 1p–1r or with reference analogues m^7GpppG and ARCA (m^7GmpppG), were purified via RP HPLC, transfected into A549 cells, and the protein activity (luminescence) was measured using a reporter assay at 72 h post-transfection. The total amount of protein produced over 72 h from each capped RNA was normalized to m^7GpppG RNA (Figure 6 and Figure S4). […] Namely, replacing the N7-methyl group with a benzyl moiety (1a) increased protein production over fivefold in A549 cells compared to m^7GpppG-capped mRNA (Figure 6).
The influence of N7-arylmethylated dinucleotide 5′ cap analogues on the translational properties of HPLC-purified IVT mRNA is shown in Figure S4, Measurements are total protein produced over 72 h by A549 cells transfected with capped mRNAs. Each plot in Figure S4 represents a single experiment consisting of three independent transfections of the cells at the same passage. Bars show mean value normalized to […] ± SD. In the main manuscript, all nine data points from three different cell passages were combined to present cumulative protein expression.

Chain of eukaryotic translation initiation factor 4E (eIF4E) (P63073 whole entry): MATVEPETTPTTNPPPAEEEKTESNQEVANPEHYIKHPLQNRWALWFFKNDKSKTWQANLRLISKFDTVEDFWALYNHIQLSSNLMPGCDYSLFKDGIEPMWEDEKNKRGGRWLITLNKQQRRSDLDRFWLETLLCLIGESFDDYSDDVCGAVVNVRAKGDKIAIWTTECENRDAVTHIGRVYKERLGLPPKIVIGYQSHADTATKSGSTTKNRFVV
Chain of eIF4E (P63073 whole entry): as above

Turning to `Cc1ccc(C[n+]2cn([C@@H]3O[C@H](COP(=O)(O)OP(=O)([O-])OP(=O)(O)OC[C@H]4O[C@@H](n5cnc6c(=O)[nH]c(N)nc65)[C@H](O)[C@@H]4O)[C@@H](O)[C@H]3O)c3nc(N)nc(O)c32)cc1` [1d, 4-MeBn^7GpppG], the IC50 in series [1] was determined as 16.9 ± 3.5 µM. In addition, the half-maximal effective concentration (EC50) on eIF4E (25 °C, probe m^7GTP-triazol-FAM 10 nM, eIF4E 100 nM) was 860 ± 30 nM; in series [2] (Table S2), 5.6 µM. Besides, the Kd on eIF4E (calculated from EC50) is 295 ± 13 nM; in series [2] (pyrene-based high-throughput competition assay, 30 °C, KD calculated from EC50, read-out: KD Cap-eIF4E ± SD) it was 482 ± 81 nM. On hDcpS, the “susceptibility to hDcpS (in words)” value is given as “almost as good a substrate as Bn^7GpppG”. In addition, the “hDcpS Assay: fraction of the cap remaining after 1 h incubation with DcpS” value at hDcpS (37 °C, 1 h) is listed as 0.53.
Regarding m^7GmpppG [reference compound], the “Rel. Protein Expression” value in the series with A549 cells is 8.6 ± 1.0.

Values taken from publication PMC8623273, “Novel N7-Arylmethyl Substituted Dinucleotide mRNA 5′ cap Analogs: Synthesis and Evaluation as Modulators of Translation” (Pharmaceutics, 2021).
